Laboratory results: patent US20060052384A1, “Aryl piperidine derivatives as inducers of ldl-receptor expression for the treatment of hypercholesterolemia” (priority 2002, published 2006)

Columns and labels:
[1] = system: LDL-r promoter and the luciferase reporter gene in HepG2 cells; test: In vitro assay: induction of luciferase activity in HepG2 cells stably transfected with LDL-r promoter/luciferase reporter construct; format: cell-based; details: Homo sapiens, 24 hours incubation, RPMI medium with 2% lipoprotein-deficient serum, tested 10^-6M to 10^-9M
Method: HepG2 cells, stably transfected with a construct comprising the LDL-r promoter and the luciferase reporter gene, were seeded at 50,000 cells/well in 96 well plates. After 1 day cells were incubated with compounds for 24 hours in RPMI medium containing 2% of lipoprotein-deficient serum. Compounds were tested from 10^−6M to 10^−9M. Cell lysates were prepared and the luciferase activity was measured by the luciferase assay system (Promega). Induction of luciferase activity was calculated taking untreated cells as control. The ED50 of each compounds was determined compared to the ED50 of an internal standard.

`COc1c(C2CCN(CCCCNC(=O)c3ccc(-c4ccc(Cl)cc4)nc3)CC2)ccc2c1CCCC2` [Example 38, 6-(4-Chloro-phenyl)-N-{4-[4-(1-methoxy-5,6,7,8-tetrahydro-naphthalen-2-yl)-piperidin-1-yl]-butyl}-nicotinamide] gave a melting point of 184 to 186 °C.
Work on `COc1c(C2CCN(CCCCNC(=O)c3ccc(-c4ccc(C#N)o4)cc3)CC2)ccc2c1CCCC2` [Example 36] yielded a melting point of 180 to 182 °C.
In the case of `Cn1cc(C2CCN(CCCCNC(=O)c3ccc(-c4ccc(C(F)(F)F)cc4)c(CO)c3)CC2)c2ccccc21` [Example 1], the EC50 [1] is reported as 7 nM.
Work on `COc1c(C2CCN(CCCCNC(=O)c3[nH]nc(-c4ccc(C#N)cc4)c3CO)CC2)ccc2c1CCCC2` [Example 14] yielded a melting point of 185 to 186 °C.
Work on `COc1c(C2CCN(CCCCNC(=O)c3ccc(-c4csc(C(C)=O)c4)cc3)CC2)ccc2c1CCCC2` [Example 33, 4-(5-Acetyl-thiophen-3-yl)-N-{4-[4-(1-methoxy-5,6,7,8-tetrahydro-naphthalen-2-yl)-piperidin-1-yl]-butyl}-benzamide] yielded a melting point of 208 to 210 °C.
In the case of `COc1c(C2CCN(CCCCNC(=O)c3ccc(-c4ccc(Cl)s4)cc3)CC2)ccc2c1CCCC2` [Example 23, 4-(5-Chloro-thiophen-2-yl)-N-{4-[4-(1-methoxy-5,6,7,8-tetrahydro-naphthalen-2-yl)-piperidin-1-yl]-butyl}-benzamide], the melting point is reported as 185 to 187 °C.
`COc1c(C2CCN(CCCCNC(=O)c3ccc(-c4ccc(C#N)s4)nc3)CC2)ccc2c1CCCC2` [Example 42, 6-(5-Cyano-thiophen-2-yl)-N-{4-[4-(1-methoxy-5,6,7,8-tetrahydro-naphthalen-2-yl)-piperidin-1-yl]-butyl}-nicotinamide] gave a melting point of 186 to 188 °C.
In the case of `COc1c(C2CCN(CCCCNC(=O)c3ccc(-c4ccc(NC(=O)C(F)(F)F)cc4)cc3)CC2)ccc2c1CCCC2` [Example 29, 4′-(2,2,2-Trifluoro-acetylamino)-biphenyl-4-carboxylic acid {4-[4-(1-methoxy-5,6,7,8-tetrahydro-naphthalen-2-yl)-piperidin-1-yl]-butyl}-amide], the melting point is reported as 226 to 228 °C.
Work on `COc1c(C2CCN(CCCCNC(=O)c3ccc(-c4ccc(Cl)cc4)c(O)c3)CC2)ccc2c1CCCC2` [Example 25] yielded a melting point of 199 °C.
For `CCOc1cc(CC)ccc1C1CCN(CCCCNC(=O)c2sc(-c3ccc(C(F)(F)F)cc3)nc2CO)CC1` [Example 4, 4-Hydroxymethyl-2-(4-trifluoromethyl-phenyl)-thiazole-5-carboxylic acid {4-[4-(2-ethoxy-4-ethyl-phenyl)-piperidin-1-yl]-butyl}-amide], the melting point was 150 °C.
In the case of `COc1c(C2CCN(CCCCNC(=O)c3ccc(-c4ccc(Cl)s4)nc3)CC2)ccc2c1CCCC2` [Example 40, 6-(5-Chloro-thiophen-2-yl)-N-{4-[4-(1-methoxy-5,6,7,8-tetrahydro-naphthalen-2-yl)-piperidin-1-yl]-butyl}-nicotinamide], the melting point is reported as 175 to 177 °C.
Compound `COc1c(C2CCN(CCCCNC(=O)c3oc(-c4ccc(C#N)cc4)nc3CO)CC2)ccc2c1CCCC2` [Example 16, 2-(4-Cyano-phenyl)-4-hydroxymethyl-oxazole-5-carboxylic acid {4-[4-(1-methoxy-5,6,7,8-tetrahydro-naphthalen-2-yl)-piperidin-1-yl]-butyl}-amide] has a melting point of 160 to 162 °C.
For `COc1c(C2CCN(CCCCNC(=O)c3ccc(-c4cnc(C#N)nc4)cc3)CC2)ccc2c1CCCC2` [Example 44, 4-(2-Cyano-pyrimidin-5-yl)-N-{4-[4-(1-methoxy-5,6,7,8-tetrahydro-naphthalen-2-yl)-piperidin-1-yl]-butyl}-benzamide], the melting point was 202 °C.
Work on `COc1c(C2CCN(CCCCNC(=O)c3ccc(-c4ccc(C(=O)N(C)C)cc4)cc3)CC2)ccc2c1CCCC2` [Example 19] yielded a melting point of 170 °C.
`COc1c(C2CCN(CCCCNC(=O)c3ccc(-c4ccc(C(C)=O)s4)cc3)CC2)ccc2c1CCCC2` [Example 20, 4-(5-Acetyl-thiophen-2-yl)-N-{4-[4-(1-methoxy-5,6,7,8-tetrahydro-naphthalen-2-yl)-piperidin-1-yl]-butyl}-benzamide] showed a melting point of 216 to 218 °C.
Work on `COc1c(C2CCN(CCCCNC(=O)c3ccc(-c4ccc(C#N)nc4)cc3)CC2)ccc2c1CCCC2` [Example 43, 4-(6-Cyano-pyridin-3-yl)-N-{4-[4-(1-methoxy-5,6,7,8-tetrahydro-naphthalen-2-yl)-piperidin-1-yl]-butyl}-benzamide] yielded a melting point of 179 to 181 °C.
`COc1c(C2CCN(CCCCNC(=O)c3ccc(-c4ccsc4C#N)cc3)CC2)ccc2c1CCCC2` [Example 31, 4-(2-Cyano-thiophen-3-yl)-N-{4-[4-(1-methoxy-5,6,7,8-tetrahydro-naphthalen-2-yl)-piperidin-1-yl]-butyl}-benzamide] gave a melting point of 236 to 238 °C.
Work on `COc1c(C2CCN(CCCCNC(=O)c3ccc(-c4ccc(Cl)cc4)cn3)CC2)ccc2c1CCCC2` [Example 37, 5-(4-Chloro-phenyl)-pyridine-2-carboxylic acid {4-[4-(1-methoxy-5,6,7,8-tetrahydro-naphthalen-2-yl)piperidin-1-yl]-butyl}-amide] yielded a melting point of 103 to 105 °C.
For `COc1c(C2CCN(CCCCNC(=O)c3sc(-c4ccc(C#N)cc4)nc3CO)CC2)ccc2c1CCCC2` [Example 7, 2-(4-Cyano-phenyl)-hydroxymethyl-thiazole-5-carboxylic acid {4-[4-(1-methoxy-5,6,7,8-tetrahydro-naphthalen-2-yl)-piperidin-1-yl]-butyl}-amide], the melting point was 212 °C.
Work on `COc1c(C2CCN(CCCCNC(=O)c3ccc(-c4ccc(NS(=O)(=O)CC(F)(F)F)cc4)cc3)CC2)ccc2c1CCCC2` [Example 22, 4′-(2,2,2-Trifluoro-ethanesulfonylamino)-biphenyl4-carboxylic acid {4-[4-(1-methoxy 5,6,7,8-tetrahydro-naphthalen-2-yl)-piperidin-1-yl]-butyl}-amide] yielded a melting point of 182 to 184 °C.
For `COc1c(C2CCN(CCCCNC(=O)c3sc(-c4ccc(Cl)cc4)nc3C)CC2)ccc2c1CCCC2` [Example 12, 2-(4-Chloro-phenyl)4-methyl-thiazole-5-carboxylic acid {4-[4-(1-methoxy-5,6,7,8-tetrahydro-naphthalen-2-yl)-piperidin-1-yl]-butyl}-amide], the melting point was 151 °C.
`COc1c(C2CCN(CCCCNC(=O)c3ccc(-c4ccc(Cl)cn4)cc3)CC2)ccc2c1CCCC2` [Example 32, 4-(5-Chloro-pyridin-2-yl)-N-{4-[4-(1-methoxy-5,6,7,8-tetrahydro-naphthalen-2-yl)-piperidin-1-yl]-butyl}-benzamide] gave an EC50 [1] of 10 nM and a melting point of 213 to 215 °C.
In the case of `COc1c(C2CCN(CCCCNC(=O)c3ccc(-c4ccc(C#N)cn4)cc3)CC2)ccc2c1CCCC2` [Example 30, 4-(5-Cyano-pyridin-2-yl)-N-{4-[4-(1-methoxy-5,6,7,8-tetrahydro-naphthalen-2-yl)-piperidin-1-yl]-butyl}-benzamide], the melting point is reported as 220 to 222 °C.
`COc1c(C2CCN(CCCCNC(=O)c3ccc(-c4ccc(C#N)cc4)nc3)CC2)ccc2c1CCCC2` [Example 39, 6-(4-Cyano-phenyl)-N-{4-[4-(1-methoxy-5,6,7,8-tetrahydro-naphthalen-2-yl)-piperidin-1-yl]-butyl}-nicotinamide] showed a melting point of 166 to 168 °C.
With `COc1c(C2CCN(CCCCNC(=O)c3oc(-c4ccc(C#N)cc4)nc3C)CC2)ccc2c1CCCC2` [Example 15, 2-(4-Cyano-phenyl)-4-methyl-oxazole-5-carboxylic acid {4-[4-(1-methoxy-5,6,7,8-tetrahydro-naphthalen-2-yl)-piperidin-1-yl]-butyl}amide] the melting point was 157 °C.
For `COc1c(C2CCN(CCCCNC(=O)c3ccc(-c4ccc(Cl)nc4)cc3)CC2)ccc2c1CCCC2` [Example 34], the melting point was 202 to 204 °C.
For `COc1c(C2CCN(CCCCNC(=O)c3ccc(-c4ccc(C(=O)C(F)(F)F)cc4)cc3)CC2)ccc2c1CCCC2` [Example 26, 4′-(2,2,2-Trifluoro-acetyl)-biphenyl-4-carboxylic acid {4-[4-(1-methoxy-5,6,7,8-tetrahydro-naphthalen-2-yl)-piperidin-1-yl]-butyl}-amide], the melting point was 197 to 199 °C.
For `COc1c(C2CCN(CCCCNC(=O)c3ccc(-c4ccc(NS(=O)(=O)C(C)C)cc4)cc3)CC2)ccc2c1CCCC2` [Example 24], the melting point was 188 to 190 °C.
For `COc1c(C2CCN(CCCCNC(=O)c3ccc(-c4ccc(Cl)nn4)cc3)CC2)ccc2c1CCCC2` [Example 35, 4-(6-Chloro-pyridazin-3-yl)-N-{4-[4-(1-methoxy-5,6,7,8-tetrahydro-naphthalen-2-yl)-piperidin-1-yl]-butyl}-benzamide], the melting point was 192 to 194 °C.
`COc1c(C2CCN(CCCCNC(=O)c3ccc(-c4ccc(C#N)cc4)cn3)CC2)ccc2c1CCCC2` [Example 41, 5-(4-Cyano-phenyl)-pyridine-2-carboxylic acid {4-[4-(1-methoxy-5,6,7,8-tetrahydro-naphthalen-2-yl)-piperidin-1-yl]-butyl}-amide] showed a melting point of 140 °C.
